No end group written: not given here.
Legend:
E. coli Y1088 = test: Zone of inhibition on lawn of E. coli Y1088; format: cell-based
[1] = tested on: Acinetobacter caloaceticus (19606); test: Minimal inhibitory concentration in trypticase soy broth; format: cell-based
Source text: (§1) Table III also lists the range of minimal inhibitory concentrations for various organisms assayed in trypticase soy broth. These determinations were made following standard techniques well known in the art and described in such publications as, DIFCO Manual, 10th edition, 1984, pages 78-80.

Candida albicans (14053) = test: as above; format: cell-based
Source text: as §1

[2] = tested on: Citrobacter freundii (8090); test: as above; format: cell-based
Source text: as §1

[3] = tested on: Enterobacter aerogenes (13048); test: as above; format: cell-based
Source text: as §1

Eschericia coli (25922) = test: as above; format: cell-based
Source text: as §1

Eschericia coli D31 = test: as above; format: cell-based
Source text: as §1

[4] = tested on: Klebisiella pneumonia (13883); test: as above; format: cell-based
Source text: as §1

Proteus vulgaris (13315) = test: as above; format: cell-based
Source text: as §1

[5] = tested on: Pseudomonas aeruginosa (27853); test: as above; format: cell-based
Source text: as §1

[6] = tested on: Salmonella typhimurium (14028); test: as above; format: cell-based
Source text: as §1

[7] = tested on: Serratia marcescens (8100); test: as above; format: cell-based
Source text: as §1

[8] = tested on: Shigella flexneri (12022); test: as above; format: cell-based
Source text: as §1

[9] = tested on: Staphyloccus epidermidis (1228); test: as above; format: cell-based
Source text: as §1

[10] = tested on: Staphylococcus aureus (25923); test: as above; format: cell-based
Source text: as §1

[11] = tested on: Streptococcus faecalis (19433); test: as above; format: cell-based
Source text: as §1

[12] = tested on: Streptococcus pyogenes (19615); test: as above; format: cell-based
Source text: as §1

Amoeba proteus = test: Antiprotozoan activity, physical lysis by light microscopy; format: cell-based; conditions: approximate concentration, visual assessment by light microscopy
Source text: (§2) Table IV lists the approximate concentration of Magainins which induces physical lysis of several representative protozoan species. These determinations were made by visual assessment of the treated organisms by light microscopy. Of course, the optimal effective antimicrobial concentration of a particular Magainin can be easily determined in a routine manner without undue experimentation by techniques well known to one of ordinary skill in the art.

Euglena gracilis = test: as above; format: cell-based; conditions: approximate concentration, visual assessment by light microscopy
Source text: as §2

Paramecium caudatum = test: as above; format: cell-based; conditions: approximate concentration, visual assessment by light microscopy
Source text: as §2

[13] = tested on: Enterobacter sonnei (23355); test: Minimal inhibitory concentration in trypticase soy broth; format: cell-based
Source text: as §1

Shigella sonnei (25931) = test: as above; format: cell-based
Source text: as §1

Acanthomeba castellani = test: Comparison of potencies, MIC (Table V); format: cell-based
Source text: (§3) It is pointed that the addition of a carboxyl-terminal amide to Magainin II results in about a 5-fold increase in potency of the peptide in several systems when compared to Magainin II. This simple modification illustrates one of several ways of modifying the polypeptides of the present invention.

E. coli D-31 = test: Comparison of potencies, MIC (Table V); format: cell-based; conditions: E. coli D-31 (Table V)
Source text: as §3

Pseudomonas aeruginosa = test: Comparison of potencies, MIC (Table V); format: cell-based
Source text: as §3

Saccharomyces cerviscae = test: Comparison of potencies, MIC (Table V); format: cell-based
Source text: as §3

Vero Cells = test: Cytotoxicity by loss of Trypan Blue exclusion; format: cell-based, monkey; conditions: 30 minutes after addition, MEM with 10% fetal calf serum
Source text: (§4) This activity is considered a significant attribute of the Magainin peptides in that it permits their use in the killing of animal cells. […] The most resistant appears to be the epithelial cell from the oral mucosa. The most sensitive is a transformed monkey kidney cell. […] This includes anti-tumor activity, in vivo cytolysis or growth inhibition of malignant cells, such as in leukemias and selective reduction in specific cell populations (e.g., removal of lymphocytes from blood).
(§5) Cells were suspended in standard minimal Eagles medium containing 10% fetal calf serum. VERO cells and KB cells were obtained from the American Type Culture Collection. Human diploid fibroblasts were propagated from a primary dermal biopsy. Human lymphocytes were collected from a buffy coat preparation by centrifugation in ficoll-hyapaque medium. Human buccal epithelium was obtained by scraping the oral mucosa with a glass cover-slip and resuspending the cellular scraping in MEM. Cytotoxicity was determined by loss of Trypan Blue exclusion, following addition of dye to the medium. Cytotoxicity was assessed 30 minutes after addition of the peptide. Concentration noted represents the concentration of peptide resulting in 50% toxicity as determined visually by light microscopic examination of the treated cells.

[14] = tested on: Human Buccal Epithelial Cells; test: Cytotoxicity by loss of Trypan Blue exclusion; format: cell-based; conditions: 30 minutes after addition
Source text: as §4, §5

[15] = tested on: Human Diploid Fibroblasts; test: Cytotoxicity by loss of Trypan Blue exclusion; format: cell-based; conditions: 30 minutes after addition
Source text: as §4, §5

Human KB Cells = test: Cytotoxicity by loss of Trypan Blue exclusion; format: cell-based; conditions: 30 minutes after addition
Source text: as §4, §5

[16] = tested on: Peripheral Human Lymphocytes; test: Cytotoxicity by loss of Trypan Blue exclusion; format: cell-based; conditions: 30 minutes after addition
Source text: as §4, §5

human sperm = test: Spermicidal activity, sperm motility by light microscopy; format: cell-based; conditions: human sperm in phosphate buffered saline, room temperature
Method: Magainin II(g) was added in various concentrations to a suspension of human sperm in phosphate buffered saline. Motility was assayed by visual inspection under a light microscope. Observations were conducted at room temperature (about 22°-25° C.). The approximate number of motile sperm observed in 20 independent fields was noted as a function of concentration. Magainin II(g) inhibits sperm motility by 50% at 35 μg/ml and by 100% at 75 μg/ml.

Plasmodium gallinaceum = test: Activity against malarial parasite, direct light microscopy; format: cell-based; conditions: 100 ug/ml in phosphate buffered saline, within seconds
Method: Observations of activity were conducted by direct light microscopy. A sample of female and male zygotic forms of the chicken malarial parasite were suspended in phosphate buffered saline. Magainin II(g) was added to each at 100 ug/ml.

HTLV III = test: Anti-viral activity against HTLV III in SUPT1 tester cells; format: cell-based; conditions: 200 μg/ml, virus preincubated 37° C. 30 min
Method: HTLV III was obtained from culture media from the producing cell line A.3101. The media was diluted with MEM containing 10% fetal calf serum (FCS) to a viral concentration of about 10^4 pfu/ml. Magainin II(g) was added to the viral innoculum (1 ml) to a concentration of 200 μg/ml and incubated at 37° C. for 30 min. The viral innoculum was then added to a well containing 10^3 tester cells (cell line, SUPT1) and 1 ml of MEM with 10% FCS. Viral activity was assessed by formation of syncytia and cell death in the test cell culture as compared with cell cultures unexposed to Magainin peptides.

Row | Substance | Zone of Inhibition on Lawn of E. coli Y1088 Generated by 50 μg of the Peptide (E. coli Y1088) [mm] | Minimal Inhibitory Concentration [1] [µg/mL] | Minimal Inhibitory Concentration (Candida albicans (14053)) [µg/mL] | Minimal Inhibitory Concentration [2] [µg/mL] | Minimal Inhibitory Concentration [3] [µg/mL] | Minimal Inhibitory Concentration (Eschericia coli (25922)) [µg/mL] | Minimal Inhibitory Concentration (Eschericia coli D31) [µg/mL] | Minimal Inhibitory Concentration (Proteus vulgaris (13315)) [µg/mL] | Minimal Inhibitory Concentration [5] [µg/mL] | Minimal Inhibitory Concentration [6] [µg/mL] | Minimal Inhibitory Concentration [7] [µg/mL] | Minimal Inhibitory Concentration [9] [µg/mL] | Minimal Inhibitory Concentration [10] [µg/mL] | Minimal Inhibitory Concentration [11] [µg/mL] | Minimal Inhibitory Concentration [12] [µg/mL] | Concentration required for osmotic lysis (Amoeba proteus) [µg/mL] | Concentration required for osmotic lysis (Euglena gracilis) [µg/mL] | Concentration required for osmotic lysis (Paramecium caudatum) [µg/mL] | also measured
1 | FLHSAKKFGKAFVGEIMNS [Magainin II(d), (NH2)FLHSAKKFGKAFVGEIMNS(OH)] | 2 |  |  |  |  |  |  |  |  |  |  |  |  |  |  |  |  |  | 
2 | GIGKFLHSAGKFGKAFVGEIMKS [Magainin I] |  | 7 to 35 | > 100 | > 100 | > 100 | 7 to 35 | 1 to 20 | > 100 | > 100 | > 100 | > 100 | > 100 | > 100 | > 100 | 7 to 35 | 5 | 5 | 5 | Minimal Inhibitory Concentration [4]: > 100 µg/mL; Minimal Inhibitory Concentration [8]: 35 to 70 µg/mL
3 | GIGKFLHSAKKFGKAFVGEIMN [Magainin III] |  | 7 to 35 | > 100 | 7 to 35 | > 100 | 7 to 35 | 1 to 10 | > 100 | 35 to 70 | 35 to 70 | > 100 | 35 to 70 | > 100 | > 100 | 7 to 35 | 5 | 5 | 5 | Minimal Inhibitory Concentration [4]: > 100 µg/mL
4 | GIGKFLHSAKKFGKAFVGEIMNS [Magainin II] |  | 1 to 7 | 35 to 70 | 7 to 35 | 7 to 35 | 1 to 7 | 1 to 10 | > 100 | 35 to 70 | 35 to 70 | > 100 | 7 to 35 | 35 to 70 | 35 to 70 | 1 to 7 | 5 | 5 | 5 | Minimal Inhibitory Concentration [13]: 1 to 7 µg/mL; Minimal Inhibitory Concentration (Shigella sonnei (25931)): 1 to 7 µg/mL; MIC (Acanthomeba castellani): 15 µg/mL; MIC (E. coli D-31): 10 µg/mL; MIC (Pseudomonas aeruginosa): 70 µg/mL; MIC (Saccharomyces cerviscae): 50 µg/mL
5 | GIGKFLHSAKKFGKAFVGEIMNS-NH2 [Magainin II(g)] | 15 |  |  |  |  |  |  |  |  |  |  |  |  |  |  |  |  |  | MIC (Acanthomeba castellani): 3 µg/mL; MIC (E. coli D-31): 2 µg/mL; MIC (Pseudomonas aeruginosa): 15 µg/mL; MIC (Saccharomyces cerviscae): 10 µg/mL; Concentration of peptide resulting in 50% toxicity (Vero Cells): 25 µg/mL; Concentration of peptide resulting in 50% toxicity [14]: 500 µg/mL; Concentration of peptide resulting in 50% toxicity [15]: 250 µg/mL; Concentration of peptide resulting in 50% toxicity (Human KB Cells): 125 µg/mL; Concentration of peptide resulting in 50% toxicity [16]: 75 µg/mL; Concentration that inhibits sperm motility by 50% (human sperm): 35 µg/mL; Concentration that inhibits sperm motility by 100% (human sperm): 75 µg/mL; Effect on female and male zygotic forms of Plasmodium gallinaceum (Plasmodium gallinaceum): both forms underwent evident physical lysis; Reverse transcriptase activity in culture fluids (HTLV III): no greater reverse transcriptase activity than uninfected cells; Viral activity by formation of syncytia and cell death in test cell culture (HTLV III; 2 weeks incubation): appeared identical to cultures not exposed to virus
6 | GIGKYLHSAKKFGKAFVGEIMNS-NH2 [Magainin II(h)] | 7 |  |  |  |  |  |  |  |  |  |  |  |  |  |  |  |  |  | 
7 | GKFLHSAKKFGKAFVGEIMNS [Magainin II(b)] | 10 |  |  |  |  |  |  |  |  |  |  |  |  |  |  |  |  |  | 
8 | HSAKKFGKAFVGEIMNS [Magainin II(f), (NH2)HSAKKFGKAFVGEIMNS(OH)] | 0 |  |  |  |  |  |  |  |  |  |  |  |  |  |  |  |  |  | Effect on female and male zygotic forms of Plasmodium gallinaceum (Plasmodium gallinaceum): no visible effect
9 | KFLHSAKKFGKAFVGEIMNS [Magainin II(c)] | 10 |  |  |  |  |  |  |  |  |  |  |  |  |  |  |  |  |  | 
10 | LHSAKKFGKAFVGEIMNS [Magainin II(e), (NH2)LHSAKKFGKAFVGEIMNS(OH)] | 1 |  |  |  |  |  |  |  |  |  |  |  |  |  |  |  |  |  | 

Source: patent US5643876A, “Biologically active synthetic magainin peptides” (The United States of America as represented by the …, priority 1992, dated 1997)
